{
  "source": "patent US20260216349A1",
  "about": "“STABILIZED BIOPOLYMER COMPOSITION, THEIR MANUFACTURE AND USE” (BASE SE, priority 2023, published 2026)",
  "details": "pH 7.4",
  "description": "A 10% (m/m) aqueous solution of the test substances (butronics as well as reference materials Kolliphor EL and HS15) is prepared in phosphate buffer pH 7.4. For each test substance and reference three 5 ml brown glass ampoules with screw caps are filled with 5 g of the prepared aqueous solution.\nThe respective API (as for example Fenofibrate/Itraconazole/Nilotinib) to be analyzed is then added (about 30 mg-500 mg per 5 g of 10% test substance solution, enough that the added powder doesn't dissolve anymore) in order to obtain a supersaturated solution.\nAfter stirring for 72 h at room temperature, each sample is filtered through a 0.22 μm PVDF filter and the concentration of the respective API in the filtrate is quantified by HPLC.\nThe average of the 3 replicates per API is calculated and the obtained concentrations are put in relation to Kolliphor EL, which is set to 100%.",
  "data": [
    {"substance": "POE sorbitan monooleate [Polysorbate 80]", "values": [
      {"measurement": "Solubilization of small molecules (mean value in %)", "result": 96, "unit": "%"}
    ]}
  ]
}
